Like-named read-outs stand apart in the source and are kept apart here.

The subject of experiment [1] is Chinese hamster ovary (CHO) cells. The experiment in a line: Protein synthesis assay (puromycin incorporation, Western blot). The experiment is classed as cell-based. As to conditions: Cricetulus griseus, read-out: % Protein synthesis relative to untreated (1 μM test compound). The protocol: Chinese hamster ovary (CHO) cells were maintained at 37° C. and 5% CO2 in Dulbecco's Modified Eagle's Media (DMEM) supplemented with 10% fetal bovine serum, 2 mM L-glutamine, 100 U/ml penicillin, and 100 μg/ml streptomycin. After reaching 80% of confluence, cells were detached and seeded on 6 well plates in complete media, allowed to recover overnight and treated for 2 hours with 1 μM of the test compound (to assess protein synthesis levels in unstressed condition), or for 2 hours with 300 nM Tg in the presence of 1 μM of the test compound (to assess the recovery of protein synthesis in a stressed condition). Cells with Tg alone were used as controls.
After the 2 hours treatments, media were replaced by adding 10 μg/ml puromycin (Sigma Aldrich #P8833) in complete media for 30 min. Media were removed and cells were lysed with SDS-PAGE lysis buffer. Lysates were transferred to 1.5 ml tubes and sonicated for 3 min and total protein amount were quantified using BCA Protein Assay Kit (Pierce). Equal amount of protein (30 μg) was loaded on SDS-PAGE gels.
A HRP-conjugated secondary antibody (Rockland) was employed to detect immune-reactive bands using enhanced chemiluminescence (ECL Western Blotting Substrate, Pierce). Quantification of protein bands was done by densitometry using ImageJ software.
The percentage levels were normalized to the media alone condition, which correspond to 100% protein synthesis. […]

In a further experiment the test system is ATF4. As to the kind of experiment: ATF4 expression inhibition assay (ATF4 5'UTR luciferase reporter, thapsigargin-stressed). To be noted: Homo sapiens, HEK-293T, read-out: ATF4 inhibition. The experiment is classed as cell-based. The protocol: The ATF4 reporter was prepared by fusing the human full length 5′UTR of ATF4 (NCBI Accession No. BC022088.2) upstream of the firefly luciferase coding sequence lacking the initiator methionine. The fused sequence was cloned into pLenti-EF1a-C-Myc-DDK-IRES-Puro cloning vector (Origen #PS100085) using standard methods.
HEK293T cells carrying the ATF4 luciferase reporter were plated on 96-well plates (Nunc) at 10,000 cells per well. Cells were treated two days after seeding with 100 nM thapsigargin (Tg) (Sigma-Aldrich #T9033) in the presence of different concentrations of selected compounds ranging from 0.1 nM to 10 μM. Cells without treatment or cells treated with Tg alone were used as controls. Assay plates containing cells were incubated for 3 hours at 37° C.
Luciferase reactions were performed using Luciferase Assay System (Promega #E1501) as specified by the manufacturer. Luminescence was read with an integration time of 1 s and a gain of 110 using a Cytation-5 multi-mode microplate reader (BioTek).

The mark [2] stands for this setting: unstressed CHO cells (without Tg), 1 μM test compound, 2 hours, media alone = 100%.
Setting [3] is: HEK293T cells carrying ATF4 luciferase reporter, 100 nM thapsigargin, 3 hours.

Consider `O=C(COc1ccc(Cl)c(F)c1)NN1CCC(c2nnc(-c3ccc(Cl)cc3)o2)CC1` [Compound 35, 2-(4-chloro-3-fluorophenoxy)-N-(4-(5-(4-chlorophenyl)-1,3,4-oxadiazol-2-yl)piperidin-1-yl)acetamide], for which the activity at 1 µM in experiment [1] (setting [2]) is 51.6%. Also, the IC50 in the experiment with ATF4 (setting [3]) was under 10 nM.

For the compound `O=C(Nc1ccc2cc(Cl)ccc2n1)[C@H]1CC[C@H](c2nnc([C@H]3C[C@@H](OC(F)(F)F)C3)o2)CC1` [Compound 48, trans-N-(6-chloroquinolin-2-yl)-4-(5-(cis-3-(trifluoromethoxy)cyclobutyl)-1,3,4-oxadiazol-2-yl)cyclohexanecarboxamide], the activity at 1 µM in experiment [1] (setting [2]) amounted to 22.4%. Besides, in the experiment on ATF4 (setting [3]), the IC50 lay within 10 to 100 nM.

For `O=C(Nc1ccc2cc(Cl)ccc2n1)[C@H]1CC[C@H](c2nnc(-c3ccc(Cl)cc3)o2)CC1` [Compound 19, trans-4-(5-(4-chlorophenyl)-1,3,4-oxadiazol-2-yl)-N-(6-chloroquinolin-2-yl)cyclohexane-1-carboxamide], in experiment [1] (CHO, 2 h), the activity at 1 µM is 100%. The IC50 with ATF4 (3 h) lay within 10 to 100 nM.

On to `O=C(COc1ccc(Cl)c(F)c1)N[C@H]1CC[C@H](c2nnc(COc3ccc(Cl)c(F)c3)o2)CC1` [Compound 13, trans-2-(4-chloro-3-fluorophenoxy)-N-(4-(5-((4-chloro-3-fluorophenoxy)methyl)-1,3,4-oxadiazol-2-yl)cyclohexyl)acetamide], for which the activity at 1 µM in experiment [1] (setting [2]) amounted to 134%. Moreover, the IC50 with ATF4 (setting [3]) was under 10 nM.

On to `O=C(COc1ccc(Cl)c(F)c1)N[C@H]1CC[C@H](n2cnc(-c3ccc(Cl)cc3)c2)CC1` [Compound 44, trans-2-(4-chloro-3-fluorophenoxy)-N-(4-(4-(4-chlorophenyl)-1H-imidazol-1-yl)cyclohexyl)acetamide], for which the activity at 1 µM in experiment [1] (setting [2]) is 39.5%. Further, the IC50 in the experiment on ATF4 (setting [3]) was under 10 nM.

Turning to `O=C(Nc1ccc2cc(Cl)ccc2n1)[C@H]1CC[C@H](c2nnc([C@H]3CC[C@H](C(F)(F)F)CC3)o2)CC1` [Compound 30, trans-N-(6-chloroquinolin-2-yl)-4-(5-(trans-4-(trifluoromethyl)cyclohexyl)-1,3,4-oxadiazol-2-yl)cyclohexanecarboxamide], the activity at 1 µM in experiment [1] (setting [2]) was determined as 16.7%. In the experiment with ATF4 (setting [3]), the IC50 is 100 to 1000 nM.

With `O=C(COc1ccc(Cl)cc1)NC[C@H]1CC[C@H](c2nnc(-c3ccc(Cl)cc3)o2)CC1` [Compound 4, trans-2-(4-chlorophenoxy)-N-((-4-(5-(4-chlorophenyl)-1,3,4-oxadiazol-2-yl)cyclohexyl)methyl)acetamide], the activity at 1 µM in experiment [1] (CHO, 2 h) is 123%. In addition, the IC50 in the experiment on ATF4 (3 h) is over 1000 nM.

For the compound `O=C(COc1ccc(Cl)c(F)c1)N[C@H]1CC[C@H](c2nnc(-c3ccc(Cl)cc3)o2)CC1` [Compound 7, trans-2-(4-chloro-3-fluorophenoxy)-N-(4-(5-(4-chlorophenyl)-1,3,4-oxadiazol-2-yl)cyclohexyl)acetamide], the activity at 1 µM in experiment [1] (setting [2]) is 80.9%. Further, in the experiment on ATF4 (setting [3]), the IC50 is under 10 nM.

Regarding `O=C(COc1ccc(Cl)c(F)c1)N[C@H]1CC[C@H](c2nc(-c3ccc(Cl)cc3)cs2)CC1` [Compound 34, trans-2-(4-chloro-3-fluorophenoxy)-N-(4-(4-(4-chlorophenyl)thiazol-2-yl)cyclohexyl)acetamide], in experiment [1] (CHO, 2 h), the activity at 1 µM was 83.4%. Besides, in the experiment with ATF4 (3 h), the IC50 is under 10 nM.

As to `O=C(COc1ccc(Cl)c(F)c1)N[C@H]1CC[C@H](c2nnc(Cc3ccc(Cl)c(F)c3)o2)CC1` [Compound 244, N-(trans-4-(5-(4-chloro-3-fluorobenzyl)-1,3,4-oxadiazol-2-yl)cyclohexyl)-2-(4-chloro-3-fluorophenoxy)acetamide], the activity at 1 µM in experiment [1] (setting [2]) is 94%. Besides, the IC50 with ATF4 (setting [3]) was under 10 nM.

Regarding `O=C(Nc1ccc2cc(Cl)ccc2n1)[C@H]1CC[C@H](c2nnc(Cc3ccc(Cl)cc3)o2)CC1` [Compound 237, trans-4-(5-(4-chlorobenzyl)-1,3,4-oxadiazol-2-yl)-N-(6-chloroquinolin-2-yl)cyclohexanecarboxamide], in experiment [1] (setting [2]), the activity at 1 µM was 51.3%. Besides, in the experiment on ATF4 (setting [3]), the IC50 fell in the range of 10 to 100 nM.

As for `O=C(COc1ccc(Cl)c(F)c1)N[C@H]1CC[C@H](c2cnn(-c3ccc(Cl)cc3)c2)CC1` [Compound 37, trans-2-(4-chloro-3-fluorophenoxy)-N-(4-(1-(4-chlorophenyl)-1H-pyrazol-4-yl)cyclohexyl)acetamide], in experiment [1] (setting [2]), the activity at 1 µM came to 24.3%. Moreover, the IC50 in the experiment on ATF4 (setting [3]) was under 10 nM.

For `O=C(N[C@H]1CC[C@H](c2nnc(Cc3ccc(Cl)cc3)o2)CC1)c1ccc2cc(Cl)ccc2n1` [Compound 239, 6-chloro-N-(trans-4-(5-(4-chlorobenzyl)-1,3,4-oxadiazol-2-yl)cyclohexyl)quinoline-2-carboxamide], in experiment [1] (setting [2]), the activity at 1 µM is 197%. In the experiment on ATF4 (setting [3]), the IC50 was under 10 nM.

In the case of `O=C(COc1ccc(Cl)c(F)c1)N[C@H]1CC[C@H](c2nnc(-c3ccc4cc(Cl)ccc4n3)o2)CC1` [Compound 14, trans-2-(4-chloro-3-fluorophenoxy)-N-(4-(5-(6-chloroquinolin-2-yl)-1,3,4-oxadiazol-2-yl)cyclohexyl)acetamide], the activity at 1 µM in experiment [1] (setting [2]) stood at 176%. For the same compound, in the experiment on ATF4 (setting [3]), the IC50 is under 10 nM.

In the case of `O=C(COc1ccc(Cl)c(F)c1)NN1CCC(c2nnc([C@H]3C[C@@H](OC(F)(F)F)C3)o2)CC1` [Compound 242, 2-(4-chloro-3-fluorophenoxy)-N-(4-(5-(cis-3-(trifluoromethoxy)cyclobutyl)-1,3,4-oxadiazol-2-yl)piperidin-1-yl)acetamide], the activity at 1 µM in experiment [1] (setting [2]) turned out to be 23%. Besides, in the experiment on ATF4 (setting [3]), the IC50 was under 10 nM.

On to `O=C(NC[C@H]1CC[C@H](c2nnc(-c3ccc(Cl)cc3)o2)CC1)c1cc2cc(Cl)ccc2o1` [Compound 2, trans-5-chloro-N-((4-(5-(4-chlorophenyl)-1,3,4-oxadiazol-2-yl)cyclohexyl)methyl)benzofuran-2-carboxamide], for which the activity at 1 µM in experiment [1] (setting [2]) is 136%. Moreover, the IC50 in the experiment with ATF4 (setting [3]) is 100 to 1000 nM.

With `O=C(N[C@H]1CC[C@H](c2nnc(COc3ccc(Cl)cc3)o2)CC1)c1ccc2cc(Cl)ccc2n1` [Compound 9, trans-6-chloro-N-(4-(5-((4-chlorophenoxy)methyl)-1,3,4-oxadiazol-2-yl)cyclohexyl)quinoline-2-carboxamide], in experiment [1] (setting [2]), the activity at 1 µM came out at 204%. The IC50 in the experiment with ATF4 (setting [3]) lay within 10 to 100 nM.

The values are drawn from patent US20230083885A1, “MODULATORS OF INTEGRATED STRESS RESPONSE PATHWAY” (Praxis Biotech LLC, priority 2021, published 2023).
